What was measured:
[1] = test system: normal rats; assay: Effects on blood pressure in normal rats; format: in vivo, rat
Protocol: In vivo animal experiments. All procedures were performed in accordance with the National Institutes of Health Guidelines for Use of Laboratory Animals and were approved by the University of South Florida Institutional Animal Care and Use Committeee (IS00008139). Male Sprague-Dawley rats (300-400 g, Envigo, Indianapolis, IN, USA). were anesthetized with 1.7% isoflurane via nose-cone inhalation with the SomnoSuite anesthesia system (Kent Scientific, Torrington, CT, USA). […] The left femoral artery was isolated and cannulated with a 24-gauge peripheral intravenous catheter to allow for blood withdrawal, hemodynamic monitoring, drug administration, and fluid resuscitation. Hemodynamics were continuously monitored with the SurgivetV6400 blood pressure monitor (Med-Electronics, Beltsville, MD, USA), and blood pressures and heart rate were recorded at 1-10 min intervals. All animals were observed over a 10 min period to ensure hemodynamic stability before start of the experiments. All experiments were performed randomized in alternating order. To test the effects of INCB3284 in normal rats, animals received repetitive injections of 1 mL of Lactated Ringer's solution (LR, vehicle) in 10 min intervals (n=3) or increasing doses of the drug (0.55, 0.82, 1.4 and 2.75 μmol/kg INCB3284) in 1 mL LR in 10 min intervals (n=3).

[2] = test system: isolated rat mesenteric arteries; assay: Pressure myography with isolated rat mesenteric arteries; settings: 10 μM, 15 min pre-exposure, vs vehicle
[3] = test system: severe hemorrhagic shock; assay: Example 2 Series 4: lethal hemorrhage without fluid resuscitation; format: in vivo, rat; settings: 5 μmol/kg INCB3284 or 1 μmol/kg SB328437 after 40% TBV hemorrhage
Protocol: The hemorrhagic shock models were performed as described previously, with slight modifications (DeSantis A J, et al., The Chemokine (C-C Motif) Receptor 2 Antagonist INCB3284 Reduces Fluid Requirements and Protects From Hemodynamic Decompensation During Resuscitation From Hemorrhagic Shock. Crit Care Explor 2022;4(5):e0701; Bach H H, et al., Chemokine (C-X-C motif) receptor 4 and atypical chemokine receptor 3 regulate vascular alpha(1)-adrenergic receptor function. Mol Med 2014; 20:435-47; Nassoiy S P, et al., Effects of the Kv7 voltage activated potassium channel inhibitor linopirdine in rat models of hemorrhagic shock. Clin Exp Pharmacol Physiol 2018. doi: 10.1111/1440-1681.12958. PubMed PMID: 29702725; Bach H H, et al., Proteasome inhibition prolongs survival during lethal hemorrhagic shock in rats. J Trauma Acute Care Surg 2013; 74(2):499-507). In brief, anesthesia induction was performed with the animal and isoflurane-soaked gauze placed in a bell jar. After anesthesia induction, the animals were transferred to the operative field and anesthesia was maintained with 2.7% isoflurane administered via nose-cone inhalation with the SomnoSuite small animal anesthesia system (Kent Scientific Corporation, Torrington, CT, USA). […] Using a direct cut-down technique, the left femoral artery was isolated and cannulated with a 24-gauge peripheral intravenous catheter to allow for blood withdrawal, hemodynamic monitoring, drug administration, and fluid resuscitation. After catheter placement, isoflurane was decreased to 1.5%. Hemodynamics were continuously monitored with the Surgivet invasive blood pressure monitor (Med-Electronics, Beltsville, MD, USA). Blood pressures were recorded at 1-5 min intervals during the hemorrhage and resuscitation periods. Four subsequent series of experiments were performed. All experiments in each series were performed in alternating order. In all experiments animals were continuously monitored and remained under general anesthesia until euthanasia or death, as defined by asystole or loss of pulse pressure.
Series 4: The purpose of these experiments was to determine whether treatment with the chemokine receptor antagonists increases shock tolerance, blood pressure and survival time without additional fluid resuscitation. As such, death is an intentional endpoint. Earlier endpoints are unable to answer these questions and alternatives are not available. Rats were hemorrhaged 40% total blood volume (TBV) within 10 min. At t=15 min, animals were injected with vehicle (1 mL NS, n=3), 5 μmol/kg INCB3284 in 1 mL NS (n=5) or […] SB 328437 in 1 mL NS (n=5). Animals were then hemorrhaged 2% TBV every 5 minutes until death.

[4] = increasing doses 0.55, 0.82, 1.4 and 2.75 μmol/kg in 1 mL LR, 10 min intervals

COc1ccc([C@]2(O)CC[C@@H](N3CC[C@@H](NC(=O)CNC(=O)c4cccc(C(F)(F)F)c4)C3)CC2)cn1 [INCB3284]
MAP during the observation period [1, 4]: remained constant | acute effects on blood pressure [1, 4]: did not show acute effects on blood pressure | slope of the MAP linear regression line ([1]; increasing doses 0.55-2.75 μmol/kg, not significantly different from zero (p=0.43)): −0.011 mmHg/min | artery diameter [2]: did not alter artery diameter | phenylephrine-induced vasoconstriction [2]: did not alter artery diameter or affect phenylephrine-induced vasoconstriction | MAP during subsequent 2% TBV hemorrhages in 5 min intervals ([3]; no fluid resuscitation): indistinguishable among groups | median survival time ([3]; not significantly different between groups): 80 min

Source: patent US20240277684A1, “BLOCKADE OF CHEMOKINE (C-C MOTIF) RECEPTOR 2 DURING FLUID RESUSCITATION” (University of South Florida, priority 2022, published 2024)
